# Data reported in BindingDB's records for doi:10.1016/s0960-894x(03)00528-6 (Aston University, 2003).
# Target: Arachidonate 15-lipoxygenase (Oryctolagus cuniculus)
# Test: In vitro inhibitory activity of compound on rabbit reticulocyte 15-lipoxygenase
row,IC50 [µM],Structure (SMILES)
1,1.01,"O=C(Nc1ccc(O)c(O)c1)c1ccc(NCc2ccccc2O)cc1 [N-(3,4-Dihydroxy-phenyl)-4-(2-hydroxy-benzylamino)-benzamide]"
2,1.27,"O=C(Nc1ccc(O)c(O)c1)c1ccc(NC(=O)c2ccccc2O)cc1 [N-(4-{[(3,4-dihydroxyphenyl)amino]carbonyl}phenyl)-2-hydroxybenzamide]"
3,1.51,"O=C(Nc1ccc(NC(=O)c2ccccc2O)cc1)Nc1ccc(O)c(O)c1 [N-{4-[3-(3,4-Dihydroxy-phenyl)-ureido]-phenyl}-2-hydroxy-benzamide]"

# Continued, compound first:
row,Structure (SMILES),IC50 [µM]
1,"O=C(CCc1ccc(NC(=O)c2ccccc2O)cc1)Nc1ccc(O)c(O)c1 [N-{4-[2-(3,4-Dihydroxy-phenylcarbamoyl)-ethyl]-phenyl}-2-hydroxy-benzamide]",1.45
2,"O=C(/C=C/c1ccc(NC(=O)c2ccccc2O)cc1)Nc1ccc(O)c(O)c1 [N-{4-[2-(3,4-Dihydroxy-phenylcarbamoyl)-vinyl]-phenyl}-2-hydroxy-benzamide]",1.47
